Experimental data published in ChEMBL document CHEMBL1150852, “Coumarins isolated from Angelica gigas inhibit acetylcholinesterase: structure-activity relationships” (J Nat Prod, 2001).

Target: Acetylcholinesterase (Homo sapiens, UniProt P22303)
Assay: Inhibition of AChE by spectrophotometry

Sequence of Acetylcholinesterase (P22303 whole entry): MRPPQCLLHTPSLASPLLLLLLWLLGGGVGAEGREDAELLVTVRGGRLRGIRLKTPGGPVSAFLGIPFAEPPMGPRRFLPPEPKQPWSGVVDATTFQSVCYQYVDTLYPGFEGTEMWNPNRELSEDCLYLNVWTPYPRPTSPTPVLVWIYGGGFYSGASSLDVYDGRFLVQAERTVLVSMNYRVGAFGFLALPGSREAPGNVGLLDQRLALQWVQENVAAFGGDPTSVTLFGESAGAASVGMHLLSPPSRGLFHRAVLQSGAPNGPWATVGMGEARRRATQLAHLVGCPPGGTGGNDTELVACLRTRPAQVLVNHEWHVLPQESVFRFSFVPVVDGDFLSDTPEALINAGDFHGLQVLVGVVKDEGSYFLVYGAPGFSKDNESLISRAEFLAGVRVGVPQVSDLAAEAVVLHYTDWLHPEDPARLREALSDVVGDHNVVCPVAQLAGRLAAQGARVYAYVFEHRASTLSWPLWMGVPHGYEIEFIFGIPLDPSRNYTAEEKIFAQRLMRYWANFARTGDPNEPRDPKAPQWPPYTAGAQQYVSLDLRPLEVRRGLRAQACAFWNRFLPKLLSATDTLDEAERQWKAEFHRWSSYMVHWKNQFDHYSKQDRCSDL

Row | Compound | IC50
1 | C=C(C)[C@H](O)Cc1cc2ccc(=O)oc2cc1O | 130 µM
2 | COc1cc(OCC=C(C)C)c2ccc(=O)oc2c1 | 240 µM
3 | CC(C)=CC(=O)O[C@H]1Cc2cc3ccc(=O)oc3cc2OC1(C)C [DECURSIN] | 390 µM
4 | CC(C)=CCc1cc2ccc(=O)oc2cc1O [DEMETHYLSUBEROSIN] | 2400 µM
5 | CC(C)=CCOc1c2ccoc2cc2oc(=O)ccc12 [ISOIMPERATORIN] | 69 µM
6 | CC(C)(O)[C@@H]1Cc2cc3ccc(=O)oc3cc2O1 [MARMESIN] | 67 µM
7 | COc1c2occc2cc2ccc(=O)oc12 [METHOXSALEN] | 54 µM
8 | CC(C)(O[C@@H]1O[C@H](CO)[C@@H](O)[C@H](O)[C@H]1O)[C@H]1Cc2cc3ccc(=O)oc3cc2O1 [NODAKENIN] | 68 µM
9 | CC(C)(O)C(=O)Cc1cc2ccc(=O)oc2cc1O [PEUCEDANONE] | 180 µM
10 | CC1(C)C=Cc2cc3ccc(=O)oc3cc2O1 [XANTHYLETIN] | 150 µM
